According to patent US11325899B2, “Benzofurane and benzothiophene derivatives as PGE2 receptor modulators” (IDORSIA PHARMACEUTICALS LTD, priority 2017, dated 2022):

What was measured:
PTGER2 (EP2) = molecular target: T1, PTGER2 (EP2) (Homo sapiens, UniProt P43116); test: hEP2 b-arrestin assay (PathHunter HEK 293 PTGER2 b-arrestin cells); type: cell-based; settings: antagonistic activity, beta-arrestin assay; read-out: hEP2 b-arr IC50
T1 construct: host or cells: HEK 293 (PathHunter PTGER2 b-arrestin cell line)
Experimental: (§1) The antagonistic activities of the compounds of formula (I) on the EP2 and EP4 receptors are determined in accordance with the following experimental method.
(§2) The assay is using the PathHunter™ HEK 293 PTGER2 and PTGER4 b-arrestin cell lines from DiscoverX. The system is based on the Enzyme Fragment Complementation Technology. Two complementing fragments of the b-galactosidase enzyme are expressed within stably transfected cells. The larger portion of b-gal, termed EA for Enzyme Acceptor, is fused to the C-terminus of b-arrestin 2. The smaller fragment, termed ProLink™ tag, is fused to PTGER2 (EP2) or PTRGER4 (EP4) at the C-terminus. Upon activation, b-arrestin is recruited which forces the interaction of ProLink and EA, allowing complementation of the two fragments of b-gal and the formation of a functional enzyme which is capable of hydrolysing the substrate and generating a chemiluminescent signal.
(§3) The HEK 293 PTGER2 b-arrestin cells (DiscoverX 93-021-4C1) are detached from culture dishes with a cell dissociation buffer (Invitrogen, 13151-014), and collected in growing medium (GM: DMEM+Glutamax-I (Invitrogen 32430)/10% FCS, 1% Penicilin/streptomycin). 5000 cells per well of a 384 well plate (white with white bottom Greiner 781080) are seeded in 20 ul per well of GM. Plate is incubated at 37° C., 5% C02 for 24 hours.
(§4) Stock solutions of test compounds are made at a concentration of 10 mM in DMSO, and serially diluted in DMSO to concentrations required for inhibition dose response curves (tested concentration range 10 μM-2 nM or 1 μM-0.2 nM).
PGE2 (Cayman 14010, stock solution: 10 mM in DMSO) is used as agonist at 5 μM final concentration, corresponding to EC80.
Five microliters of diluted compounds are transferred into the assay plate. Plate is pre-incubated 15 minutes at 37° C. Then five microliters of PGE2 (final conc. 5 μM) are transferred into the assay plate. Plate is incubated 120 minutes at 37° C.
(§5) PathHunter Glo Detection Kit components are thawed and mix according to manufacturer's instructions: 1 part Galacton Star Substrate with 5 parts Emerald II™ Solution, and 19 parts of PathHunter Cell Assay Buffer, respectively. Twelve μl of reagent are transferred to the assay plate and incubate for 1 hour at room temperature in the dark. Luminescence counts are read on a BMG Fluostar Optima reader according to manufacturer's instructions.
(§6) For each compound concentration calculate of the percentage of activity compared to DMSO control value as average±STDEV. (each concentration is measured in duplicate)
(§7) IC50 values and curves are generated with XLfit software (IDBS) using Dose-Response One Site model 203. When compounds were measured multiple times, mean values are given.

PTGER4 (EP4) = molecular target: T2, PTGER4 (EP4) (Homo sapiens, UniProt P35408); test: hEP4 b-arrestin assay (PathHunter HEK 293 PTGER4 b-arrestin cells); type: cell-based; settings: antagonistic activity, beta-arrestin assay; read-out: hEP4 b-arr IC50
T2 construct: host or cells: HEK 293 (PathHunter PTGER4 b-arrestin cell line)
Experimental: as §1, §2
as §3, with “PTGER4” for “PTGER2”, “93-030-4C1)” for “93-021-4C1)”
as §4
PGE2 (Cayman 14010, stock solution: 100 uM in DMSO) is used as agonist at 20 nM final concentration, corresponding to EC80.
Five microliters of diluted compounds are transferred into the assay plate. Plate is pre-incubated 15 minutes at 37° C. Then five microliters of PGE2 (final conc. 20 nM) are transferred into the assay plate. Plate is incubated 120 minutes at 37° C.
as §5, §6, §7

T1 sequence (P43116 whole entry): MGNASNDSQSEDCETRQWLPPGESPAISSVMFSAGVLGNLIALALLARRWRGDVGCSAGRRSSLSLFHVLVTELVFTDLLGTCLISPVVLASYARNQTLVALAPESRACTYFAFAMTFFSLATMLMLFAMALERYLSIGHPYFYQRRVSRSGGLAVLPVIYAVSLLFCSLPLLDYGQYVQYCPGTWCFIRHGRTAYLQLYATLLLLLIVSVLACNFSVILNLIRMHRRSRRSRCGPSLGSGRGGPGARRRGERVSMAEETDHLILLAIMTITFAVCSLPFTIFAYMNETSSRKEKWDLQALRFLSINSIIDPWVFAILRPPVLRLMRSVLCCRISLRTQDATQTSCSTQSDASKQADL
T2 sequence (P35408 whole entry): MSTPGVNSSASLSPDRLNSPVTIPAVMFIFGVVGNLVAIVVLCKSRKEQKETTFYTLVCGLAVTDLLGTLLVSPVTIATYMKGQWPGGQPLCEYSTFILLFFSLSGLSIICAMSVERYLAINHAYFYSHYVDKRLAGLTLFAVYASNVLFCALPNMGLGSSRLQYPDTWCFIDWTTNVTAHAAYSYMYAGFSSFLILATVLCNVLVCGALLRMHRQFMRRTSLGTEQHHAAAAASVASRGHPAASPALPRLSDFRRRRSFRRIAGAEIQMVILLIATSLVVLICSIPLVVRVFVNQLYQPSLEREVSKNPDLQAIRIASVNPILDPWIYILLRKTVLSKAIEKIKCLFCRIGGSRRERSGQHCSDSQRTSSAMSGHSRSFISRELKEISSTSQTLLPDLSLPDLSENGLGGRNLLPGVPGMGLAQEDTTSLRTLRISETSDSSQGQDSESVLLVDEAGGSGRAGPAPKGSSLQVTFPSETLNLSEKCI

Compound	IC50 (PTGER2 (EP2)) [nM]	IC50 (PTGER4 (EP4)) [nM]
(4-{6-[2-(2-Cyano-benzo[b]thiophen-3-yl)-ethylamino]-pyrimidin-4-yl}-2-ethoxy-phenyl)-acetic acid [Example 175]	89	492
CCCc1cc(-c2cc(NCCc3c(C)sc4c(C)cc(F)cc34)ncn2)ccc1C1(C(=O)O)CC1 [Example 218, 1-(4-{6-[2-(5-Fluoro-2,7-dimethyl-benzo[b]thiophen-3-yl)-ethylamino]-pyrimidin-4-yl}-2-propyl-phenyl)-cyclopropanecarboxylic acid]	95	143
CCOc1cc(-c2cc(NCCc3c(C)sc4c(C)cc(F)cc34)ncn2)ccc1C1(C(=O)O)CC1 [Example 215, 1-(2-Ethoxy-4-{6-[2-(5-fluoro-2,7-dimethyl-benzo[b]thiophen-3-yl)-ethylamino]-pyrimidin-4-yl}-phenyl)-cyclopropanecarboxylic acid]	143	151
CCc1cc(-c2cc(NCCc3c(C)sc4c(C)cc(F)cc34)ncn2)ccc1CC(=O)O [Example 185, (2-Ethyl-4-{6-[2-(5-fluoro-2,7-dimethyl-benzo[b]thiophen-3-yl)-ethylamino]-pyrimidin-4-yl}-phenyl)-acetic acid]	50	134
COc1cc(-c2cc(NCCc3c(C#N)sc4ccccc34)ncn2)ccc1CC(=O)O [Example 174, (4-{6-[2-(2-Cyano-benzo[b]thiophen-3-yl)-ethylamino]-pyrimidin-4-yl}-2-methoxy-phenyl)-acetic acid]	135	723
CCCc1cc(-c2cc(NCCc3c(C)sc4c(C)cc(F)cc34)ncn2)ccc1C(=O)NCC(C)(C)O [Example 207, 4-{6-[2-(5-Fluoro-2,7-dimethyl-benzo[b]thiophen-3-yl)-ethylamino]-pyrimidin-4-yl}-N-(2-hydroxy-2-methyl-propyl)-2-propyl-benzamide]	26	335
Cc1sc2c(C)cc(F)cc2c1CCNc1cc(-c2cnn(C(C)(C)C(=O)O)c2)ncn1 [Example 214, 2-(4-{6-[2-(5-Fluoro-2,7-dimethyl-benzo[b]thiophen-3-yl)-ethylamino]-pyrimidin-4-yl}-pyrazol-1-yl)-2-methyl-propionic acid]	237	388
Cc1sc2c(C)cc(F)cc2c1CCNc1cc(-c2ccc(CC(=O)O)c(OC(F)(F)F)c2)ncn1 [Example 187, (4-{6-[2-(5-Fluoro-2,7-dimethyl-benzo[b]thiophen-3-yl)-ethylamino]-pyrimidin-4-yl}-2-trifluoromethoxy-phenyl)-acetic acid]	79	425
CCCc1cc(-c2cc(NCCc3c(C)sc4c(C)cc(F)cc34)ncn2)ccc1C(=O)NCCO [Example 209, 4-{6-[2-(5-Fluoro-2,7-dimethyl-benzo[b]thiophen-3-yl)-ethylamino]-pyrimidin-4-yl}-N-(2-hydroxy-ethyl)-2-propyl-benzamide]	8	280
CCCn1cc(-c2cc(NCCc3c(C)sc4c(C)cc(F)cc34)ncn2)cc1C(=O)O [Example 201, 4-{6-[2-(5-Fluoro-2,7-dimethyl-benzo[b]thiophen-3-yl)-ethylamino]-pyrimidin-4-yl}-1-propyl-1H-pyrrole-2-carboxylic acid]	34	351
COc1cc(-c2cc(NCCc3c(C)sc4c(C)cc(F)cc34)ncn2)ccc1CCC(=O)O [Example 223, 3-(4-{6-[2-(5-Fluoro-2,7-dimethyl-benzo[b]thiophen-3-yl)-ethylamino]-pyrimidin-4-yl}-2-methoxy-phenyl)-propionic acid]	35	487
Cc1sc2c(C)cc(F)cc2c1CCNc1cc(-c2ccc(C(N)=O)cc2)ncn1 [Example 178, 4-{6-[2-(5-Fluoro-2,7-dimethyl-benzo[b]thiophen-3-yl)-ethylamino]-pyrimidin-4-yl}-benzamide]	48	331
CCOc1cc(-c2cc(NCCc3c(C)sc4c(C)cc(F)cc34)ncn2)ccc1C(N)=O [Example 213, 2-Ethoxy-4-{6-[2-(5-fluoro-2,7-dimethyl-benzo[b]thiophen-3-yl)-ethylamino]-pyrimidin-4-yl}-benzamide]	10	405

Other lines, results leading:

IC50 (PTGER2 (EP2)) [nM]	IC50 (PTGER4 (EP4)) [nM]	Compound
77	175	Cc1cc(-c2cc(NCCc3c(C)sc4c(C)cc(F)cc34)ncn2)cc(Cl)c1CC(=O)O [Example 198, (2-Chloro-4-{6-[2-(5-fluoro-2,7-dimethyl-benzo[b]thiophen-3-yl)-ethylamino]-pyrimidin-4-yl}-6-methyl-phenyl)-acetic acid]
40	210	Cc1sc2c(C)cc(F)cc2c1CCNc1cc(-c2ccc3[nH]ccc3c2)ncn1 [Example 183, [2-(5-Fluoro-2,7-dimethyl-benzo[b]thiophen-3-yl)-ethyl]-[6-(1H-indol-5-yl)-pyrimidin-4-yl]-amine]
47	212	Cc1sc2c(C)cc(F)cc2c1CCNc1cc(-c2ccc(-c3noc(=O)[nH]3)cc2)ncn1 [Example 177, 3-(4-{6-[2-(5-Fluoro-2,7-dimethyl-benzo[b]thiophen-3-yl)-ethylamino]-pyrimidin-4-yl}-phenyl)-[1,2,4]oxadiazol-5(4H)-one [tautomeric form: 3-(4-{6-[2-(5-Fluoro-2,7-dimethyl-benzo[b]thiophen-3-yl)-ethylamino]-pyrimidin-4-yl}-phenyl)-[1,2,4]oxadiazol-5-ol]]
11	667	CCOc1cc(-c2cc(NCCc3c(C)sc4c(C)cc(F)cc34)ncn2)ccc1C(=O)NC [Example 212, 2-Ethoxy-4-{6-[2-(5-fluoro-2,7-dimethyl-benzo[b]thiophen-3-yl)-ethylamino]-pyrimidin-4-yl}-N-methyl-benzamide]
126	423	CCc1cc(-c2cc(NCCc3c(C)sc4c(C)cc(F)cc34)ncn2)ccc1C(=O)OC [Example 181, 2-Ethyl-4-{6-[2-(5-fluoro-2,7-dimethyl-benzo[b]thiophen-3-yl)-ethylamino]-pyrimidin-4-yl}-benzoic acid methyl ester]
14	453	Cc1sc2c(C)cc(F)cc2c1CCNc1cc(-c2cc3cccc(C(=O)O)c3s2)ncn1 [Example 222, 2-{6-[2-(5-Fluoro-2,7-dimethyl-benzo[b]thiophen-3-yl)-ethylamino]-pyrimidin-4-yl}-benzo[b]thiophene-7-carboxylic acid]
24	908	Cc1sc2c(C)cc(F)cc2c1CCNc1cc(-c2cc3cccc(C(=O)O)c3[nH]2)ncn1 [Example 221, 2-{6-[2-(5-Fluoro-2,7-dimethyl-benzo[b]thiophen-3-yl)-ethylamino]-pyrimidin-4-yl}-1H-indole-7-carboxylic acid]
63	550	CCn1cc(-c2cc(NCCc3c(C)sc4c(C)cc(F)cc34)ncn2)cc1C(=O)O [Example 200, 1-Ethyl-4-{6-[2-(5-fluoro-2,7-dimethyl-benzo[b]thiophen-3-yl)-ethylamino]-pyrimidin-4-yl}-1H-pyrrole-2-carboxylic acid]
30	367	CCOc1cc(-c2cc(NCCc3c(C)sc4c(C)cc(F)cc34)ncn2)ccc1C(=O)NCCO [Example 211, 2-Ethoxy-4-{6-[2-(5-fluoro-2,7-dimethyl-benzo[b]thiophen-3-yl)-ethylamino]-pyrimidin-4-yl}-N-(2-hydroxy-ethyl)-benzamide]
